Experimental data reported in patent US11731955B2, “Crystal habit of quinoline derivative and preparation method for crystalline powder thereof” (CHIA TAI TIANQING PHARMACEUTICAL GROUP CO., LTD, priority 2018, dated 2023).
Counter-ions that a name gives are not always drawn.

What was measured:
Format in all cases: physicochemical
[1] = Determination of solubility (saturation concentration); conditions: for solubility thermodynamic at 24 h: aqueous buffer, thermodynamic from solid, shaker at 37° C.
Experimental: 14.16 mg of the crystalline powder of the compound of the formula II acquired in Example 1 was dissolved, shaken overnight (24 hours) on a shaker at 37° C. and cooled to room temperature. The saturation concentration was measured using the supernatant. As a result, the saturation concentrations in the phosphoric acid solutions at pH 6.8 and 7.0 for 24 hours were 0.8 and 0.3 μg/mL, respectively.

[2] = Specific surface area by multipoint BET measurement; conditions: for A (specific surface area): pulverized powders, dihydrochloride
Experimental: In the present application, the specific surface area A used herein refers to the total area per unit mass (m^2/g), as determined by multipoint BET specific surface area measurement.
The specific surface area was determined by multipoint BET specific surface area measurement, in which the absolute adsorption quantity of nitrogen in a sample was measured under different partial pressures, and the single-layer adsorption quantity was calculated by the BET theory, thus giving the specific surface area.

[3] = Particle-size distribution by laser particle size analyzer; conditions: laser particle-size distribution of pulverized powders; dihydrochloride
Text: “X10” as used herein refers to the particle size for 10% of the particles in the particle size distribution, i.e., the fraction of particles smaller than this particle size accounts for 10% of all particles; “X50” refers to the particle size for 50% of the particles in the particle size distribution, i.e., the fraction of particles smaller than this particle size accounts for 50% of all particles; “X90” refers to a particle size for 90% of the particles in the particle size distribution, i.e., the fraction of particles smaller than this particle size accounts for 90% of all particles.
The particle-size distribution of the materials was determined by laser. Instrument: fully automatic dry and wet two-in-one laser particle size analyzer, VIBRI (HELOSBR).

[4] = Dissolution properties of powders by basket method; conditions: 100 rpm, dihydrochloride; for Cumulative dissolution % (0.1 mol/L hydrochloric acid): 1000 mL
Experimental: The dissolution properties of powders 1 and 2 in 1000 mL of 0.1 mol/L aqueous hydrochloric acid solution and a standard medium of 10 mM phosphate buffer containing 0.075% SDS, pH 6.8 were measured by basket method at 100 rpm and compared.

Row | Biopharmaceutical Classification System (BCS) solubility classification [1] | solubility thermodynamic at 24 h ([1]; phosphoric acid solution pH 6.8, 24 hours) [µg/mL] | solubility thermodynamic at 24 h ([1]; phosphoric acid solution pH 7.0, 24 hours) [µg/mL] | A (specific surface area) [2] [m^2/g] | X50 [3] [μm] | X90 [3] [μm] | Cumulative dissolution % (10 mM phosphate buffer containing 0.075% SDS, pH 6.8) ([4]; 3 min) [%] | Cumulative dissolution % (0.1 mol/L hydrochloric acid) ([4]; 3 min) [%] | Cumulative dissolution % (10 mM phosphate buffer containing 0.075% SDS, pH 6.8) ([4]; 5 min) [%] | Cumulative dissolution % (0.1 mol/L hydrochloric acid) ([4]; 5 min) [%] | specific surface area ([2]; bulk crystal recrystallized in ethanol (Comparative Example 1)) [m^2/g] | Compound
1 | low solubility | 0.8 | 0.3 |  |  |  |  |  |  |  |  | COc1cc2c(Oc3ccc4[nH]c(C)cc4c3F)ccnc2cc1OCC1(N)CC1 [Example 1, Anlotinib dihydrochloride]
2 |  |  |  | 11.09 ± 0.04 | 3.96 | 64.89 | 77.4 | 89.6 | 90.2 | 94.2 |  | COc1cc2c(Oc3ccc4[nH]c(C)cc4c3F)ccnc2cc1OCC1(N)CC1 [Powder 1, Anlotinib dihydrochloride]
3 |  |  |  |  |  |  |  |  |  |  | 3.4750 | COc1cc2c(Oc3ccc4[nH]c(C)cc4c3F)ccnc2cc1OCC1(N)CC1 [Anlotinib dihydrochloride, reference compound]
4 |  |  |  | 13.07 ± 0.05 | 2.66 | 14.01 | 80.1 | 93.7 | 86.4 | 95.8 |  | COc1cc2c(Oc3ccc4[nH]c(C)cc4c3F)ccnc2cc1OCC1(N)CC1 [Powder 2, Anlotinib dihydrochloride]
